In patent US12065438B2, “Substituted tricyclic compounds as indoleamine 2,3-dioxygenase inhibitors” (Merck Sharp & Dohme LLC, priority 2019, dated 2024) one finds IC50 data, which are given here for 25 molecules.

The target of this assay is IDO1 (Homo sapiens, UniProt P14902). Description: IDO1 Cellular Assay in HeLa Cells Stimulated with IFNγ. The format is cell-based. Details: endogenous in cells; host or cells: HeLa cells stimulated with IFNγ. As to conditions: HeLa cells stimulated with IFNγ 100 ng/mL, 300 uM L-tryptophan, about 48 hours, fluorescence readout; read-out: IDO1 HELA Cell Assay, IC50. The method, then: Biological Assays IDO1 Cellular Assay in HeLa Cells Stimulated with IFNγ HeLa cells were cultured in complete HeLa culture medium (90% EMEM, 10% heat-inactivated fetal bovine serum) and expanded to about 1×10^9 cells. The cells were then collected and frozen down at 1×10^7 cells/vial in 1 mL frozen medium (90% complete HeLa culture medium, 10% DMSO). Compounds to be tested were serially diluted in ten 3-fold steps in DMSO starting from 10 mM DMSO stocks in Echo low volume plate(s). Compound dilutions or DMSO alone were then dispensed from the dilution plate(s) into Greiner black 384-well assay plate(s) (catalog #781086, 50 nL/well) using an Echo 550 acoustic liquid handler (Labcyte). Frozen HeLa cells were thawed and transferred into HeLa assay medium (99% complete HeLa culture medium, 1% Pen/Strep) with 20 mL medium/vial of cells. The cells were spun down at 250 g in a table top centrifuge for 5 min and suspended in same volume of HeLa assay medium. The cells were then counted and adjusted to a density of 2×10^5 cells/mL in HeLa assay medium. Sterile L-tryptophan were added to the cells with final concentration of 300 uM L-tryptophan. A small aliquot (2 mL/plate) of HeLa cells were set aside and were not treated with IFNγ, to serve as the Max-E control. The rest of HeLa cells were added with sterile IFNγ (Cat #285-IF, R & D systems) with a final concentration of 100 ng/mL. HeLa cells with and without IFNγ were dispensed to the respective wells of 384-well assay plates containing the compounds. The plates were incubated for about 48 hours at a 37° C., 5% CO2 incubator. Afterwards, 12 μL of 0.5 M methyl isonipecotate in dimethyl sulfoxide were added into each well and the plates were sealed and incubated at 37° C. without CO2 overnight. The plates were centrifuged for 1 min at 200×g. The resulting fluorescence was measured in a Spectramax plate reader (Molecular Devices) with a 400 nm excitation filter and a 510 nm emission filter. The fluorescence intensity of each well was corrected for the background observed in wells with non-IFNγ-treated cells and was expressed as a fraction of the intensity observed in wells of IFNγ-treated cells and DMSO only. Potencies were calculated by […] least squares fit to the four parameter logistic IC50 equation.
IDO1, sequence (P14902 whole entry): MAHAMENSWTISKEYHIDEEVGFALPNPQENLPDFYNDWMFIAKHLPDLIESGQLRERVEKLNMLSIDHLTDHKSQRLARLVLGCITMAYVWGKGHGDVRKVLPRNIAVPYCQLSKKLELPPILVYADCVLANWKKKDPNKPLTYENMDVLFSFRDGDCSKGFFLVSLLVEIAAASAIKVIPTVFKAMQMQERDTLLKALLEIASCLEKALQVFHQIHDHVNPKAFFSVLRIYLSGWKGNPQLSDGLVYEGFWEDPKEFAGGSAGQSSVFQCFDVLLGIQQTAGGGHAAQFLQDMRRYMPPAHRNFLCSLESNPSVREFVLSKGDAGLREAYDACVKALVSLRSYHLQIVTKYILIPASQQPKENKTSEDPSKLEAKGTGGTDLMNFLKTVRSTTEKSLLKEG
For “4-fluoro-N-(2-((6aS,7aR)-5-(2-methylpyrimidin-4-yl)-6,6a,7,7a-tetrahydro-5H-cyclopropa[c][1,5]naphthyridin-2-yl)propan-2-yl)benzamide [Example 31]”, the IC50 worked out at 80.6 nM.
For the molecule `Cc1nccc(N2CC3CC3c3nc(C(C)(C)NC(=O)c4ccc(F)cc4)ccc32)n1` (racemic) [Example 29, 4-fluoro-N-(2-(5-(2-methylpyrimidin-4-yl)-6,6a,7,7a-tetrahydro-5H-cyclopropa[c][1,5]naphthyridin-2-yl)propan-2-yl)benzamide], the IC50 is 90 nM.
The value for `CCC(NC(=O)c1ccc(F)cc1)c1ccc2c(n1)C1CC1CN2c1ccnc(C)n1` (racemic) [Example 38, 4-fluoro-N-(1-(5-(2-methyl-pyrimidin-4-yl)-6,6a,7,7a-tetrahydro-5H-cyclopropa[c]-[1,5]naphthyridin-2-yl)propyl)-benzamide] was 6.77 nM; that for `Cc1nccc(N2CC3CC3c3nc(C4(NC(=O)c5ccc(F)cc5)CC4C)ccc32)n1` (racemic) [Example 47, 4-fluoro-N-(2-methyl-1-(5-(2-methylpyrimidin-4-yl)-6,6a, 7,7a-tetrahydro-5H-cyclopropa[c][1, 5]naphthyridin-2-yl)cyclopropyl)benzamide] was 52 nM; that for `Cc1nccc(N2C[C@@H]3C[C@@H]3c3cc(C4(NC(=O)c5ccc(F)cc5)CC4)ccc32)n1` (single isomer, unassigned) [Example 2] was 1.5 nM.
For `O=C(C1CC1)N1CC2CC2c2cc(C3(C(=O)Nc4ccc(F)cc4)CCC3)ccc21` (single isomer, unassigned) [Example 3, 1-(3-(cyclopropanecarbonyl)-1a,2,3,7b-tetrahydro-1H-cyclopropa[c]quinolin-6-yl)-N-(4-fluorophenyl)cyclobutanecarboxamide], the IC50 turned out to be 44 nM.
The value for `Cc1nccc(N2c3ccc(C4(NC(=O)c5ccc(F)cc5)CC4)cc3C3CC32)n1` (single isomer, unassigned) [Example 8, 4-fluoro-N-(1-(2-(2-methylpyrimidin-4-yl)-1,1a,2,6b-tetrahydrocyclopropa[b]indol-5-yl)cyclopropyl)benzamide] was 2.91 nM; that for `Cc1nccc(N2c3ccc(C4(NC(=O)c5ccc(F)cc5)CC4)cc3C3CC32)n1` (single isomer, unassigned) [Example 9, 4-fluoro-N-(1-(2-(2-methylpyrimidin-4-yl)-1,1a,2,6b-tetrahydrocyclopropa[b]indol-5-yl)cyclopropyl)benzamide] was 8.21 nM; that for `CC(C)(NC(=O)c1ccc(F)cc1)c1ccc2c(n1)[C@H]1C[C@H]1CN2C(=O)OC1CC1` (single isomer, unassigned) [Example 34] was 221 nM.
The value for `CCC(NC(=O)c1ccc(F)cc1)c1ccc2c(n1)C1CC1CN2C(=O)OC1CC1` (single isomer, unassigned) [Example 36, cyclopropyl 2-(1-(4-fluorobenzamido)propyl)-6,6a,7,7a-tetrahydro-5H-cyclopropa[c][1,5]naphthyridine-5-carboxylate] was 211 nM.
The value for `Cc1nccc(N2C[C@@H]3C[C@@H]3c3nc(C4(NC(=O)c5ccc(F)cc5)CC4)ccc32)n1` (stereo in doubt) [Example 12, 4-fluoro-N-(1-(5-(2-methylpyrimidin-4-yl)-6,6a,7,7a-tetrahydro-5H-cyclopropa[c][1,5]naphthyridin-2-yl)cyclopropyl)benzamide] was 1.91 nM; that for `Cc1nccc(N2C[C@H]3C[C@H]3c3nc(C4(NC(=O)c5ccc(F)cc5)CC4)ccc32)n1` (stereo in doubt) [Example 13, 4-fluoro-N-(1-(5-(2-methylpyrimidin-4-yl)-6,6a,7,7a-tetrahydro-5H-cyclopropa[c][1,5]naphthyridin-2-yl)cyclopropyl)benzamide] was 1.07 nM; that for `Cc1nccc(N2CC3CC3c3cc(C4(NC(=O)c5ccc(F)cc5)CC4)ccc32)n1` [Example 1, 4-fluoro-N-(1-((1aR,7bS)-3-(2-methylpyrimidin-4-yl)-1a,2,3,7b-tetrahydro-1H-cyclopropa[c]quinolin-6-yl)cyclopropyl)benzamide] was 1.67 nM.
Regarding `Cc1nccc(N2c3ccc(C4(NC(=O)c5ccc(F)cc5)CC4)cc3CC3CCC32)n1` (stereo not shown) [Example 5, 4-fluoro-N-(1-(3-(2-methylpyrimidin-4-yl)-1,2,2a,3,8,8a-hexahydrocyclobuta[b]quinolin-6-yl)cyclopropyl)benzamide], the IC50 is 4.71 nM.
In the case of `CC(C)(C)OC(=O)N1CC2CC2c2nc(C3(NC(=O)c4ccc(F)cc4)CC3)ccc21` (stereo not shown) [Example 10, tert-butyl 2-(1-(4-fluorobenzamido)cyclopropyl)-6,6a,7,7a-tetrahydro-5H-cyclopropa[c][1,5]naphthyridine-5-carboxylate], the IC50 stood at 96.7 nM.
With `O=C(NC1(c2ccc3c(n2)C2CC2CN3)CC1)c1ccc(F)cc1` (stereo not shown) [Example 11, 4-fluoro-N-(1-(6,6a,7,7a-tetrahydro-5H-cyclopropa[c][1,5]naphthyridin-2-yl)cyclopropyl)benzamide] the figure was 2300 nM; with `COC(=O)c1nccc(N2CC3CC3c3nc(C4(NC(=O)c5ccc(F)cc5)CC4)ccc32)n1` (stereo not shown) [Example 17, methyl 4-(2-(1-(4-fluorobenzamido)cyclopropyl)-6,6a,7,7a-tetrahydro-5H-cyclopropa[c][1,5]naphthyridin-5-yl)pyrimidine-2-carboxylate], 9.02 nM.
The value for `O=C(NC1(c2ccc3c(n2)[C@H]2C[C@H]2CN3C(=O)OC2CCOCC2)CC1)c1ccc(F)cc1` [Example 22, tetrahydro-2H-pyran-4-yl (6aR,7aS)-2-(1-(4-fluorobenzamido)cyclo-propyl)-6,6a,7,7a-tetra-hydro-5H-cyclopropa[c]-[1,5]naphthyridine-5-carboxylate] was 61.6 nM.
With `O=C(NC1(c2ccc3c(n2)[C@@H]2C[C@@H]2CN3C(=O)OC2CCOCC2)CC1)c1ccc(F)cc1` [Example 23, tetrahydro-2H-pyran-4-yl (6aS,7aR)-2-(1-(4-fluoro-benzamido)cyclopropyl)-6,6a,7,7a-tetrahydro-5H-cyclopropa[c][1,5]-naphthyridine-5-carboxylate] the figure was 17 nM; with `CC(NC(=O)c1ccc(F)cc1)c1ccc2c(n1)C1CC1CN2C(=O)OC(C)(C)C` (stereo not shown) [Example 24, tert-butyl 2-(1-(4-fluorobenzamido)ethyl)-6,6a,7,7a-tetrahydro-5H-cyclopropa[c][1,5]naphthyridine-5-carboxylate], 20.9 nM; with `C[C@H](NC(=O)c1ccc(F)cc1)c1ccc2c(n1)[C@H]1C[C@H]1CN2C(=O)OC1CC1` [Example 25, cyclopropyl (6aR,7aS)-2-((S)-1-(4-fluorobenzamido)-ethyl)-6,6a,7,7a-tetrahydro-5H-cyclopropa[c][1,5]-naphthyridine-5-carboxylate], 15.4 nM.
Consider `C[C@H](NC(=O)c1ccc(F)cc1)c1ccc2c(n1)[C@@H]1C[C@@H]1CN2C(=O)OC1CC1` [Example 26, cyclopropyl (6aS,7aR)-2-((S)-1-(4-fluorobenzamido)-ethyl)-6,6a,7,7a-tetrahydro-5H-cyclopropa[c][1,5]-naphthyridine-5-carboxylate], for which the IC50 is 35 nM.
The value for `C[C@@H](NC(=O)c1ccc(F)cc1)c1ccc2c(n1)[C@H]1C[C@H]1CN2C(=O)OC1CC1` [Example 28, cyclopropyl (6aR,7aS)-2-((R)-1-(4-fluorobenzamido)-ethyl)-6,6a,7,7a-tetrahydro-5H-cyclopropa[c][1,5]-naphthyridine-5-carboxylate] was 29.3 nM; that for `Cc1nccc(N2C[C@@H]3C[C@@H]3c3nc([C@]4(NC(=O)c5ccc(F)cc5)C[C@H]4C)ccc32)n1` [Example 39, 4-fluoro-N-((1S,2R)-2-methyl-1-((6aR,7aS)-5-(2-methyl-pyrimidin-4-yl)-6,6a,7,7a-tetra-hydro-5H-cyclopropa[c][1,5]-naphthyridin-2-yl)cyclopropyl)-benzamide] was 10.5 nM.
On to `Cc1nccc(N2C[C@@H]3C[C@@H]3c3nc([C@@]4(NC(=O)c5ccc(F)cc5)C[C@@H]4C)ccc32)n1` [Example 40, 4-fluoro-N-((1R,2S)-2-methyl-1-((6aR,7aS)-5-(2-methyl-pyrimidin-4-yl)-6,6a,7,7a-tetra-hydro-5H-cyclopropa[c][1,5]-naphthyridin-2-yl)cyclopropyl)-benzamide], for which the IC50 is 2.83 nM.

By IC50 is commonly meant the point on the concentration scale where inhibition reaches its midpoint.
